Laboratory results published in ChEMBL document CHEMBL3739339, “Discovery of a series of 2-(pyridinyl)pyrimidines as potent antagonists of GPR40” (Medchemcomm, 2015).
Converted amounts (≈) assume the structure as drawn. The source made the active and inactive calls. No cut-off for these calls is given here.

Key:
[1] = target: Free fatty acid receptor 1 (Homo sapiens, UniProt O14842); experiment: Antagonist activity against human GPR40 expressed in HEK293s FLPIN cells assessed as elaidic acid stimulated IP1 release after 2 hrs by TR-FRET analysis; format: functional, cell-based
[2] = Lipophilicity, log D of the compound at pH 7.4; format: physicochemical; conditions: buffer
[3] = Oral absorption in rat; format: ADME, organism-based; conditions: in vivo, read-out: Fabs
[4] = target: Free fatty acid receptor 1 (Rattus norvegicus, UniProt Q8K3T4); experiment: Antagonist activity against rat GPR40
[5] = Solubility of compound; format: physicochemical
[6] = Volume of distribution at steady state in rat; format: ADME, organism-based; conditions: in vivo, read-out: Vdss
[7] = Oral bioavailability in rat; format: ADME, organism-based; conditions: in vivo
Liver microsome = experiment: Intrinsic clearance in human liver microsomes […]; format: ADME
[8] = Fraction unbound in rat plasma; format: ADME, cell-free
Rattus norvegicus [9] = species: Rattus norvegicus; experiment: Unbound clearance in rat; format: ADME, organism-based; conditions: in vivo
[10] = Clearance in rat; format: ADME, organism-based; conditions: in vivo
[11] = Fraction unbound in human plasma; format: ADME, cell-free
Hepatocyte = experiment: Intrinsic clearance in rat hepatocytes measured per 10^6 cells; format: ADME, cell-based
Rattus norvegicus [12] = experiment: Inhibition of NEFA-driven plasma insulin level in male Zucker rat pretreated with beta3-agonist for 30 mins at 80 mg/kg measured 4 hrs post dosing by ELISA; format: functional
[13] = target: T1, Free fatty acid receptor 2 (Homo sapiens) (UniProt O15552); experiment: Antagonist activity at GPR43 (unkown origin)
T1 sequence (whole entry): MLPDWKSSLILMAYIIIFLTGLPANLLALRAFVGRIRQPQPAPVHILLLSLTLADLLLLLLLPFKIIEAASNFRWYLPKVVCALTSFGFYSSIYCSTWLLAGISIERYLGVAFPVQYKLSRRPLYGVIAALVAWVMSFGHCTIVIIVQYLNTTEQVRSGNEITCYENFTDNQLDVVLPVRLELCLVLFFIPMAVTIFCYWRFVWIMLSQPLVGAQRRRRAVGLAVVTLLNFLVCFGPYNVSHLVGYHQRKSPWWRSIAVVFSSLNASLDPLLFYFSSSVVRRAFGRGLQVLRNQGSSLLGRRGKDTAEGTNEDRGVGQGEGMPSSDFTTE

Rattus norvegicus [14] = experiment: Effect on plasma insulin level in male Zucker rat at 80 mg/kg measured after 4 hrs by ELISA relative to vehicle control; format: ADME, organism-based; conditions: in vivo
Rattus norvegicus [15] = experiment: Effect on plasma NEFA level in male Zucker rat at 80 mg/kg measured 4 hrs by ELISA assay relative to vehicle control; format: ADME, organism-based; conditions: in vivo
[16] = target: Free fatty acid receptor 1 (Mus musculus) (UniProt Q76JU9); experiment: Antagonist activity against mouse GPR40
Chain of Free fatty acid receptor 1 (Mus musculus) (Q76JU9 whole entry): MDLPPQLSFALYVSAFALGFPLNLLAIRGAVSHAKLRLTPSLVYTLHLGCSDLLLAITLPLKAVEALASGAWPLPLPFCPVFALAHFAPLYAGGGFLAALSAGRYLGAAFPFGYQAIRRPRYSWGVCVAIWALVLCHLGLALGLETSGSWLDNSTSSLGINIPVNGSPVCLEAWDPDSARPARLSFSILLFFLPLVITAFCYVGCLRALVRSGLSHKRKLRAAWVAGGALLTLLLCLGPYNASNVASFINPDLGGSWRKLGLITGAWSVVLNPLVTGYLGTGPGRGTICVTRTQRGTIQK

Chain of Free fatty acid receptor 1 (Rattus norvegicus, UniProt Q8K3T4) (Q8K3T4 whole entry): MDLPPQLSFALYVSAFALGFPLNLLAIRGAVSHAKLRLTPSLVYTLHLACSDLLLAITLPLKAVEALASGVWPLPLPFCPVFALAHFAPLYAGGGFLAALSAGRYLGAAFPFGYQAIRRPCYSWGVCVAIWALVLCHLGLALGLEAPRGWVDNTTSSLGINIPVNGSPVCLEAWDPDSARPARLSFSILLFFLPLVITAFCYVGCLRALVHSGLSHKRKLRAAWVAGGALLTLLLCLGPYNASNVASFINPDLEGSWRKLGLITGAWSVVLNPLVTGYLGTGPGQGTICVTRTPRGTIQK
Chain of Free fatty acid receptor 1 (Homo sapiens, UniProt O14842) (O14842 whole entry): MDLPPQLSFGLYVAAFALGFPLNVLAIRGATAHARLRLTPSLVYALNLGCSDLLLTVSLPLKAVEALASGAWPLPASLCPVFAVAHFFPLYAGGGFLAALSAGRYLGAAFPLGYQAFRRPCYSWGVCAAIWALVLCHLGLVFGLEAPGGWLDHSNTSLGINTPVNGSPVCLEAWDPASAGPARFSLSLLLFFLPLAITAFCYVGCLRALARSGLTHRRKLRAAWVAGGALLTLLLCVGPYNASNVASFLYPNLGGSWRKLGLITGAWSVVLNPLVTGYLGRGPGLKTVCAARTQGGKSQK

IC50 [1] | logD [2] | Structure (SMILES) | also measured
1260 nM | 3.2 | Cc1cc(COc2c(F)cc(F)cc2F)nc(-c2ccccn2)n1 | 
398 nM | 3.2 | Cc1cc(COc2cc(F)c(F)cc2F)nc(-c2ccccn2)n1 | 
2000 nM | 2.9 | COc1cccc(OCc2cc(C)nc(-c3ccccn3)n2)c1 | 
398 nM | 3.2 | Cc1cc(COc2cccc(F)c2F)nc(-c2ccccn2)n1 | 
 | 4 | Fc1ccc(OCc2cc(OCC3(F)COC3)nc(-c3ccccn3)n2)c(F)c1F | Fa [3]: 16%; IC50 [4]: 31.6 nM; solubility [5]: 2.9 µM (≈ 1.22 µg/mL); Vd [6]: 1.4 L/kg; bioavailability [7]: 12%; CLint (Liver microsome): 56 µL/min/mg; fraction unbound [8]: 0.017; CL free (Rattus norvegicus [9]): 1100 mL/min/kg; clearance [10]: 19 mL/min/kg; fraction unbound [11]: 0.015; CLint (Hepatocyte): 72 µL/min/1e6 cells
10000 nM | 2.7 | Cc1cc(COc2ccccc2C#N)nc(-c2ccccn2)n1 | 
316 nM | 3.7 | Fc1ccc(OCc2cc(OCC3COC3)nc(-c3ccccn3)n2)c(F)c1F | 
398 nM | 3.7 | Cc1cc(COc2cccc(Cl)c2)nc(-c2ccccn2)n1 | 
> 39800 nM | 1.6 | CC(=O)Nc1ccccc1OCc1cc(C)nc(-c2ccccn2)n1 | 
100 nM | 4.3 | CC(C)Nc1cc(COc2cccc(F)c2)nc(-c2ccccn2)n1 | 
316 nM | 3.4 | Cc1cc(COc2ccccc2Cl)nc(-c2ccccn2)n1 | 
2510 nM | 2.7 | Cc1cc(COc2cccc(C#N)c2)nc(-c2ccccn2)n1 | 
1580 nM | 3.1 | Cc1cc(COc2c(F)ccc(F)c2F)nc(-c2ccccn2)n1 | 
501 nM | 3.4 | Cc1cc(COc2cc(F)cc(F)c2F)nc(-c2ccccn2)n1 | 
25.1 nM | 4.3 | CC1(C)CN(c2cc(COc3ccc(F)c(F)c3F)nc(-c3ccccn3)n2)C1 | 
251 nM | 4.3 | Cc1cc(N/N=C/c2ccccc2)nc(-c2ccccc2)n1 | solubility [5]: < 0.3 µM
> 39800 nM | 1.7 | Cc1cc(COc2cccc(S(C)(=O)=O)c2)nc(-c2ccccn2)n1 | 
398 nM | 3.4 | Cc1cc(COc2cc(F)c(F)c(F)c2)nc(-c2ccccn2)n1 | 
631 nM | 2.8 | c1ccc(OCc2cc(N3CCOCC3)nc(-c3ccccn3)n2)cc1 | 
501 nM | 3.3 | Fc1ccc(OCc2cc(N3CC4(CCO4)C3)nc(-c3ccccn3)n2)c(F)c1F | 
251 nM | 3.3 | Cc1cc(COc2ccc(F)c(F)c2F)nc(-c2ccccn2)n1 | Fa [3]: 59%; IC50 [4]: 200 nM; solubility [5]: 22 µM (≈ 7.29 µg/mL); Vd [6]: 2.3 L/kg; bioavailability [7]: 39%; CLint (Liver microsome): 57 µL/min/mg; fraction unbound [8]: 0.063; CL free (Rattus norvegicus [9]): 380 mL/min/kg; clearance [10]: 24 mL/min/kg; fraction unbound [11]: 0.03; CLint (Hepatocyte): 17 µL/min/1e6 cells
79.4 nM | 4 | CC1(COc2cc(COc3ccc(F)c(F)c3F)nc(-c3ccccn3)n2)COC1 | 
2000 nM | 2.5 | COc1ccccc1OCc1cc(C)nc(-c2ccccn2)n1 | 
158 nM | 3.3 | CC1(C#N)CN(c2cc(COc3ccc(F)c(F)c3F)nc(-c3ccccn3)n2)C1 | Fa [3]: 56%; inhibition in vivo at 80 mg/kg (Rattus norvegicus [12]): 70%; IC50 [4]: 63.1 nM; inhibition [13]: inactive; solubility [5]: 2.9 µM (≈ 1.19 µg/mL); Vd [6]: 3 L/kg; bioavailability [7]: 32%; Activity (Rattus norvegicus [14]): Non-toxic; CLint (Liver microsome): 52 µL/min/mg; fraction unbound [8]: 0.056; CL free (Rattus norvegicus [9]): 540 mL/min/kg; clearance [10]: 30 mL/min/kg; Activity (Rattus norvegicus [15]): Non-toxic; fraction unbound [11]: 0.048; CLint (Hepatocyte): 26 µL/min/1e6 cells; inhibition [16]: Active

IC50 [1] | logD [2] | Structure (SMILES) | also measured
3160 nM | 2.8 | OC1CN(c2cc(COc3ccc(F)c(F)c3F)nc(-c3ccccn3)n2)C1 | 
1580 nM | 3.6 | CN(C)c1cc(COc2cccc(F)c2)nc(-c2ccccn2)n1 | 
> 39800 nM | 1.5 | Cc1cc(COc2ccccc2S(C)(=O)=O)nc(-c2ccccn2)n1 | 
501 nM | 3.2 | Cc1cc(COc2ccc(F)c(F)c2)nc(-c2ccccn2)n1 | 
251 nM | 4.1 | CCOc1cc(COc2cccc(F)c2)nc(-c2ccccn2)n1 | 
794 nM | 3.4 | Cc1cc(COc2ccccc2)nc(-c2ccccn2)n1 | 
6310 nM | 2.9 | CC1(CS(C)(=O)=O)CN(c2cc(COc3ccc(F)c(F)c3F)nc(-c3ccccn3)n2)C1 | 
> 39800 nM | 1.9 | CC(=O)Nc1ccc(OCc2cc(C)nc(-c3ccccn3)n2)cc1 | 
12.6 nM | 4.5 | Fc1ccc(OCc2cc(OCC3CCC3)nc(-c3ccccn3)n2)c(F)c1F | 
> 39800 nM | 1.5 | Cc1cc(COc2ccc(S(C)(=O)=O)cc2)nc(-c2ccccn2)n1 | 
501 nM | 3.5 | COC1(COc2cc(COc3ccc(F)c(F)c3F)nc(-c3ccccn3)n2)COC1 | 
31600 nM | 2.6 | Cc1cc(COc2ccc(C#N)cc2)nc(-c2ccccn2)n1 | 
398 nM | 3.3 | N#CCC1(COc2cc(COc3ccc(F)c(F)c3F)nc(-c3ccccn3)n2)COC1 | 
251 nM | 3.7 | Cc1cc(COc2ccc(Cl)cc2)nc(-c2ccccn2)n1 | 
631 nM | 3 | Cc1cc(COc2ccc(F)cc2)nc(-c2ccccn2)n1 | 
631 nM | 3.9 | CCNc1cc(COc2cccc(F)c2)nc(-c2ccccn2)n1 | 
7.94 nM | > 4.9 | Fc1ccc(OCc2cc(OCC(F)(F)F)nc(-c3ccccn3)n2)c(F)c1F | 
794 nM | 3.1 | Cc1cc(COc2cccc(F)c2)nc(-c2ccccn2)n1 | 
398 nM | 3.1 | Cc1cc(COc2ccc(F)cc2F)nc(-c2ccccn2)n1 | 
> 39800 nM | 2.1 | CC(=O)Nc1cccc(OCc2cc(C)nc(-c3ccccn3)n2)c1 | 
7940 nM | 2.8 | COc1ccc(OCc2cc(C)nc(-c3ccccn3)n2)cc1 | 
398 nM | 2.9 | Cc1cc(COc2ccccc2F)nc(-c2ccccn2)n1 | 
1260 nM | 3.6 | COc1cc(COc2cccc(F)c2)nc(-c2ccccn2)n1 | 
